According to patent US20200317660A1, “Quinazolinone Compound and Application Thereof” (LUOXIN PHARMACEUTICAL (SHANGHAI) CO., LTD., priority 2017, published 2020):

What was measured:
PI3Kδ = target: T1, PI3Kδ (Homo sapiens, UniProt O00329); assay: In vitro test of enzyme activity (ADP-Glo lipokinase), PI3K delta; assay type: biochemical; conditions: 40 μM ATP, 50 μM PIP2:3PS, 120 min
T1 construct: purchased Millipore 14-604-K
Procedure: (§1) 1. In Vitro Test of Enzyme Activity
(§2) The lipokinase reaction was carried out under the conditions of a suitable substrate and ATP, followed by two steps to detect the kinase activity with the ADP-Glo™ kit. The first step was terminating the kinase reaction, wherein the remaining ATP was completely removed and only ADP was left; the second step was adding kinase detection reagents to convert ADP to ATP, accompanied by luciferin/luciferase reaction. Finally, the output value of fluorescence value was converted into kinase activity.
(§3) Experimental materials and equipments:
(§4) 2. Kit: ADP-Glo™ Lipokinase and PIP2:3PS Kit (Promega # V1792)
(§5) The kit contains: 1 mM PIP2:3PS, 10× lipid dilution buffer, 1 M magnesium chloride, 10 mM ATP, 10 mM ADP, ADP-Glo reagent, detection buffer and detection substrate.
(§6) 3. Reaction plate: OptiPlate-384, white and transparent (PerkinElmer #6007299).
(§7) 1. 10× reaction buffer: 500 mM HEPES, pH 7.5, 500 mM NaCl, 9 mM MgCl2; BSA: 10% stock solution, homemade.
(§8) 2. Final test system conditions: 1× reaction system: 50 mM HEPES, 50 mM NaCl, 3 mM MgCl2, 0.01% BSA (freshly prepared on the day of the experiment), 1% DMSO (v/v)+/−compound
(§9) 3. Reaction system: 3 μL mixture of the enzyme and the substrate (1:1)+2 μL ATP/MgCl2 mixture+5 μL ADP-Glo reagent+10 μL detection reagent.
(§10) The detailed experimental procedures are as follows:
(§11) 1. Compound dilution: 50 nL 100×compound/DMSO was transferred to the test well plate with Echo. • For PI3Kα, the compound was diluted three-fold from the highest concentration of 0.111 mM for a total of 10 concentrations. • For PI3Kβ/PI3Kδ/PI3Kγ, the compound was three-fold diluted from the highest concentration of 1.11 mM for a total of 10 concentrations.
(§12) (1) The compound to be tested was prepared and 50 nL of 100 plus compound solution or DMSO was added to the corresponding well plate.
(§13) (2) 3.33 plate reaction buffer was prepared.
(§14) (3) 3.33 solution PIP2:3PS was prepared, PIP2:3PS was thawed for at least 1 minute before use.
(§15) (4) 2.5 mM containing 5.25 mM MgCl2 was prepared.
(§16) (5) 3.33 PI3Kα/PI3Kβ/PI3Kδ/PI3Kγ solution was prepared.
(§17) (6) The lipokinase solution and the PIP2:3PS solution were mixed in a volume ratio of 1:1.
(§18) (7) 3.33: lipokinase buffer and PIP2:3PS solution were mixed in a volume ratio of 1:1.
(§19) (8) 3 μL of buffer solution and PIP2:3PS were added to the first and the second columns of the well plate.
(§20) (9) 3 μL of the mixed solution of the enzyme and PIP2:3PS was added to the wells except the first and the second columns, centrifuged for 10 seconds (1000 rpm) and incubated at 23° C. for 20 minutes.
(§21) (10) 2 μL […] was added and well was shaken.
(§22) (11) The well plate was covered and shaken for about 30 s, then the well plate was incubated at 23° C. for 2 hours.
(§23) (12) 5 μL of ADP-Glo reagent containing 10 mM MgCl2 was added.
(§24) (13) The well plate was centrifuged at 1000 rpm for 10 seconds, and the well plate was then covered, shaken for about 30 seconds, and incubated at 23° C. for 60 minutes.
(§25) (14) 10 μL kinase detection reagent was added.
(§26) (15) The well plate was centrifuged at 1000 rpm for 10 seconds, and then incubated at 23° C. for 60 minutes.
(§27) (16) The fluorescence value was measured on the Envision instrument.

[1] = tested on: phosphorylation of PI3K downstream protein Akt in MCF7 cells; assay: In vitro test of cells activity: ELISA of Akt phosphorylation in MCF7 cells; assay type: cell-based; conditions: 2 h compound, insulin 10 μg/mL stimulation, pAkt ELISA, read-out: MCF7 Cell IC50
Procedure: 2. In vitro test of cells activity
By the method of ELISA, the inhibition level of the test compound on the phosphorylation of PI3K downstream protein Akt in the signaling pathway was determined in MCF7 cells line to reflect the cells activity of the compound.
Cell culture medium: complete cell culture medium (RPMI 1640+10% serum+1% L-glutamine+1% double antibody)
Serum-free medium (without serum, RPMI 1640+1% L-glutamine+1% double antibody)
The detailed procedures areas follows:
(1) MCF7 cells (ATCC® HTB-22™) were inoculated into a 96-well plate at 100 μL of cell complete medium per well (2.5*10^4 cells per well), and the cells were incubated at 37° C. and 5% CO2 for 24 hours.
(2) The complete cell culture medium was replaced with 100 μL of serum-free medium, and incubated for starvation overnight.
(3) The compound was prepared (The initial concentration of the compound is 1 mM, which was subjected to a three-fold dilution in 10 concentrations, and the compound of each concentration was then diluted 100-fold with serum-free medium). 25 μL of the diluted compound was added to the cells orifice plate.
(4) The cells were incubated at 37° C. and 5% CO2 for 2 hours.
(5) The cells in the well plate were stimulated with 10 μg/mL insulin (Sigma # I9278-5 mL), incubated for 30 minutes, and then centrifuged at 1000 rpm for 5 minutes at room temperature.
(6) 250 μL of 1× balanced salt solution (Invitrogen, #14065-056, 4° C., containing 1 mM/L Na3VO4) was added to each well to wash the cells once.
(7) 100 μL of lysis buffer (trimethylolaminomethane hydrochloride, Invitrogen, #15567-1000 ml) was added to each well, shaken at 4° C. for 60 minutes, and then centrifuged at 4000 rpm for 4 minutes.
(8) The following procedures were carried out according to the instructions of ELISA kit (TGR BioSciences # EKT002).

PI3Kα = target: T2, PI3Kα (Homo sapiens, UniProt P42336); assay: In vitro test of enzyme activity (ADP-Glo lipokinase), PI3K alpha; assay type: biochemical; conditions: 40 μM ATP, 50 μM PIP2:3PS, 120 min
T2 construct: purchased Millipore 14-602-K
Procedure: as §1, §2, §3, §4, §5, §6, §7, §8, §9, §10, §11, §12, §13, §14, §15, §16, §17, §18, §19, §20, §21, §22, §23, §24, §25, §26, §27

PI3Kβ = target: T3, PI3Kβ (Homo sapiens, UniProt P42338); assay: In vitro test of enzyme activity (ADP-Glo lipokinase), PI3K beta; assay type: biochemical; conditions: 40 μM ATP, 50 μM PIP2:3PS, 120 min
T3 construct: purchased Promega V1751
Procedure: as §1, §2, §3, §4, §5, §6, §7, §8, §9, §10, §11, §12, §13, §14, §15, §16, §17, §18, §19, §20, §21, §22, §23, §24, §25, §26, §27

PI3Kγ = target: T4, PI3Kγ (Homo sapiens, UniProt P48736); assay: In vitro test of enzyme activity (ADP-Glo lipokinase), PI3K gamma; assay type: biochemical; conditions: 25 μM ATP, 50 μM PIP2:3PS, 120 min
T4 construct: purchased Millipore 14-558-K
Procedure: as §1, §2, §3, §4, §5, §6, §7, §8, §9, §10, §11, §12, §13, §14, §15, §16, §17, §18, §19, §20, §21, §22, §23, §24, §25, §26, §27

[2] = In vivo DMPK study in mice after a single administration; set-up: species or system female Balb/c mice; conditions: for Cmax / Oral DNAUC (area under the dose normalization curve): oral
Procedure: Experimental objective: female Balb/c mice were used as the test animals, and the blood concentration of the compound was determined and the pharmacokinetic behavior was evaluated after a single administration.
Experimental operation: 12 healthy adult female Balb/c mice were selected, 6 for intravenous injection group and 6 for oral administration group. The compound to be tested was mixed with an appropriate amount of intravenous injection group vehicle (10% HP-betaCD: 10% solutol=1:1, pH=8), vortex-mixed and sonicated to prepare a 1.0 mg/mL clear solution, followed by filtration for subsequent use; the vehicle in the oral group was 0.5% MC/0.2% Tw80. After the test compound and the vehicle were mixed, it was vortex-mixed and sonicated to prepare a 1.0 mg/mL homogeneous suspension for subsequent use. After an intravenous administration at a dose of 1 mg/kg or an oral administration at the dose of 2 mg/kg and 10 mg/kg, whole blood of the mice was collected for a certain period of time to prepare plasma. The drug concentration was analyzed by LC-MS/MS method, and Phoenix WinNonlin software was used (Pharsight, USA) to calculate the pharmacokinetic parameters.
Cmax: the highest concentration of the drug in the body; F %: oral bioavailability; Oral DNAUC: area under the dose normalization curve; Vd: apparent volume of distribution; Cl: clearance rate; T1/2: half-life.

T4 sequence (P48736 whole entry): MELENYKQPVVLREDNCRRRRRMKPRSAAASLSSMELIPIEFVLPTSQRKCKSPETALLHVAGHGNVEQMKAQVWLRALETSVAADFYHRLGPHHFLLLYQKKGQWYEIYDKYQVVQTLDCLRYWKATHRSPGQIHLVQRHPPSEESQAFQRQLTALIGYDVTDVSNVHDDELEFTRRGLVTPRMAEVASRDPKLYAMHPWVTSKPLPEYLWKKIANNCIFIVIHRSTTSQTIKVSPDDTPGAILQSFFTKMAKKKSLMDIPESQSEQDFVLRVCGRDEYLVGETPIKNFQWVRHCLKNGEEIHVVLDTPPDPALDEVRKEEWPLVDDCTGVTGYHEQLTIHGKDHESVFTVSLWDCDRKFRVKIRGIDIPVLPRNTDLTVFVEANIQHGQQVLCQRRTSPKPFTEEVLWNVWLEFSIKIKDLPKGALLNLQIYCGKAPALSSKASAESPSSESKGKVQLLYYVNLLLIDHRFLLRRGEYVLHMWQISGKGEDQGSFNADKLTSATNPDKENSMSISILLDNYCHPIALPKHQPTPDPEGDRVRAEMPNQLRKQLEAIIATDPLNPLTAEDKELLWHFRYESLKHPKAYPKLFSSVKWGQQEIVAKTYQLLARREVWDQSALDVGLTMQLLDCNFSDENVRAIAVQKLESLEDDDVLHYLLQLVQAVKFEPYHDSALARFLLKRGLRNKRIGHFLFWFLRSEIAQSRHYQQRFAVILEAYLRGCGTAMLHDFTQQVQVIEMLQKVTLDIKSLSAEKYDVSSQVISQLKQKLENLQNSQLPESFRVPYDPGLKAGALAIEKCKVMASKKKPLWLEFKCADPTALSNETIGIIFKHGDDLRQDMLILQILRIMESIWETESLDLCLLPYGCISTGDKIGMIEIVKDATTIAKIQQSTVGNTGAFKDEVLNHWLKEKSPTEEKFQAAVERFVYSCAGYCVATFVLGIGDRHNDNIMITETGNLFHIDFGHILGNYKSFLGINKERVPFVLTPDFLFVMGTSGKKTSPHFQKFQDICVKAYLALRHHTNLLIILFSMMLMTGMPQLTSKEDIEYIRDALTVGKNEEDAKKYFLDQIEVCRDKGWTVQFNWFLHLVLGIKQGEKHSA
T1 sequence (O00329 whole entry): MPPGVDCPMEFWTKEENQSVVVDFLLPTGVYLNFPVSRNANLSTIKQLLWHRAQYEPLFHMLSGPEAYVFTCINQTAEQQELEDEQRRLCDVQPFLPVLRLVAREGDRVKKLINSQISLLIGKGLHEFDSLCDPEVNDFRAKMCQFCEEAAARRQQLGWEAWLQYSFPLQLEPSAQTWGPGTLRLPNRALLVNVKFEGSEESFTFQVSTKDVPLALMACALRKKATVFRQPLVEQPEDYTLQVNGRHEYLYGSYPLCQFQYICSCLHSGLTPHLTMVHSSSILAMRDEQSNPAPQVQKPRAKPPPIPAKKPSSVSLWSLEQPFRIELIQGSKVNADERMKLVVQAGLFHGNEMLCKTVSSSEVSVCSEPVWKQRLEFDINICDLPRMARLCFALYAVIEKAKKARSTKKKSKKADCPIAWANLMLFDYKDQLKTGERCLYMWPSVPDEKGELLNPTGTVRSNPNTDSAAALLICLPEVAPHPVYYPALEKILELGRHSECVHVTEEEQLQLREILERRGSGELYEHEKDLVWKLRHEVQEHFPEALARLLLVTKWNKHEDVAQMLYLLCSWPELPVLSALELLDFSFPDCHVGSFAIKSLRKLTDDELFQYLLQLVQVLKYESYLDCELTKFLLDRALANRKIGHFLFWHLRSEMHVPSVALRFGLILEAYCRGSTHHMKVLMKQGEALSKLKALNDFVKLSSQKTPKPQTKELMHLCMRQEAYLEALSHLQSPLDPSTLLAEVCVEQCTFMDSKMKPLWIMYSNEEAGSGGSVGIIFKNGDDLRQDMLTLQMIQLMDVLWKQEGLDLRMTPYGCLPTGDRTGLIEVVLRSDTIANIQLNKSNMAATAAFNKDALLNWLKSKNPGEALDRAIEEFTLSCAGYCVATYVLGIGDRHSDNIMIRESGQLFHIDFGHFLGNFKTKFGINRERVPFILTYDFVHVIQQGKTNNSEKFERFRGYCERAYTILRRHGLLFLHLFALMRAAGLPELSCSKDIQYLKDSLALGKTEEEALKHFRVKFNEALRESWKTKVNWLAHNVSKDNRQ
T1 sequence (P27986 whole entry partner): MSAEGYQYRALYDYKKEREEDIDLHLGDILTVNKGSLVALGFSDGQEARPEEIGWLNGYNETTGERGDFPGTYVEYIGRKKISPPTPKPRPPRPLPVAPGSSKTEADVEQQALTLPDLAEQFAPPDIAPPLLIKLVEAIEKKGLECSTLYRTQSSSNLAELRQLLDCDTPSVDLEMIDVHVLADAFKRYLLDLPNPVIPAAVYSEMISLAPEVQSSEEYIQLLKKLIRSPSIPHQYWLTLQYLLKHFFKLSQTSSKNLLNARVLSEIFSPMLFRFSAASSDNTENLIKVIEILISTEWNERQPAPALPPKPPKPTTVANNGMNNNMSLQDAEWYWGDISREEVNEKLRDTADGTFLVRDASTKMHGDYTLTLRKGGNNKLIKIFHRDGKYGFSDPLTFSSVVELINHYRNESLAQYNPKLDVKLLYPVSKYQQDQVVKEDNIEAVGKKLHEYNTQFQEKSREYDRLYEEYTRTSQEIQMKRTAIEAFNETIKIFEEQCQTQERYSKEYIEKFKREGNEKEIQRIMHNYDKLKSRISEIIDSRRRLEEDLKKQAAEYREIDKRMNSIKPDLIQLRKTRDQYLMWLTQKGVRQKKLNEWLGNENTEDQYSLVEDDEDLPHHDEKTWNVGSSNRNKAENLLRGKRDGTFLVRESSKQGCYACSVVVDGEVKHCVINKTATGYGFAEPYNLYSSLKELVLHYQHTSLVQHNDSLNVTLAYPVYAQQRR
T2 sequence (P42336 whole entry): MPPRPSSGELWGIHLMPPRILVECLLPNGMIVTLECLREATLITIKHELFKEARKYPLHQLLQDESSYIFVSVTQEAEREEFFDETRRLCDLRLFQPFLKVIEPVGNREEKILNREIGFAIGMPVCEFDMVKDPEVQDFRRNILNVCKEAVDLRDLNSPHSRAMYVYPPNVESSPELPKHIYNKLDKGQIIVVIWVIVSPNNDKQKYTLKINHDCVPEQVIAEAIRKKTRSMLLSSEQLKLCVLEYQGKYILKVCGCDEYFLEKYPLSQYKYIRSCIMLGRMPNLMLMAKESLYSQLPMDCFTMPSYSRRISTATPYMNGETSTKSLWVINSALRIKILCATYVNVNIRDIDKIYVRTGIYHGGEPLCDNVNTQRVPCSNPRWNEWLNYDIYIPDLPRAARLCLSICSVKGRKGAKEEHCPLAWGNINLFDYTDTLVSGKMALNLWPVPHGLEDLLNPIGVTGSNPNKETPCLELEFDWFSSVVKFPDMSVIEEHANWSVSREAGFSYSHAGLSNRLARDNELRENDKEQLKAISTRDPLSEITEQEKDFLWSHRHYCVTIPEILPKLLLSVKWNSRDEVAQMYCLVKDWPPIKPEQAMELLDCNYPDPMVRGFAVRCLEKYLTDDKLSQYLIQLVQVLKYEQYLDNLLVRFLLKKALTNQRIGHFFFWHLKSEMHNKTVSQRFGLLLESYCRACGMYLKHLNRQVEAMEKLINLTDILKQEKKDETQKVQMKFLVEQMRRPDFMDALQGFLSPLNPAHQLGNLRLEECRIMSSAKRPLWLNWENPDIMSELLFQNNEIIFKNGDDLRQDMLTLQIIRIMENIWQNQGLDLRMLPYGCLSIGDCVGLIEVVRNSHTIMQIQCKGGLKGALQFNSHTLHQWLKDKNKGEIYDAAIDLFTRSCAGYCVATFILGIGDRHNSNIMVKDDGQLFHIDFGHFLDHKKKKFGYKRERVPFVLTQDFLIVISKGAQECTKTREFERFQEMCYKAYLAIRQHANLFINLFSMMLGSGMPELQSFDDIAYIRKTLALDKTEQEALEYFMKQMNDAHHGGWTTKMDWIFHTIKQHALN
T2 sequence (P27986 whole entry partner): as the sequence (P27986 whole entry partner) above
T3 sequence (P42338 whole entry): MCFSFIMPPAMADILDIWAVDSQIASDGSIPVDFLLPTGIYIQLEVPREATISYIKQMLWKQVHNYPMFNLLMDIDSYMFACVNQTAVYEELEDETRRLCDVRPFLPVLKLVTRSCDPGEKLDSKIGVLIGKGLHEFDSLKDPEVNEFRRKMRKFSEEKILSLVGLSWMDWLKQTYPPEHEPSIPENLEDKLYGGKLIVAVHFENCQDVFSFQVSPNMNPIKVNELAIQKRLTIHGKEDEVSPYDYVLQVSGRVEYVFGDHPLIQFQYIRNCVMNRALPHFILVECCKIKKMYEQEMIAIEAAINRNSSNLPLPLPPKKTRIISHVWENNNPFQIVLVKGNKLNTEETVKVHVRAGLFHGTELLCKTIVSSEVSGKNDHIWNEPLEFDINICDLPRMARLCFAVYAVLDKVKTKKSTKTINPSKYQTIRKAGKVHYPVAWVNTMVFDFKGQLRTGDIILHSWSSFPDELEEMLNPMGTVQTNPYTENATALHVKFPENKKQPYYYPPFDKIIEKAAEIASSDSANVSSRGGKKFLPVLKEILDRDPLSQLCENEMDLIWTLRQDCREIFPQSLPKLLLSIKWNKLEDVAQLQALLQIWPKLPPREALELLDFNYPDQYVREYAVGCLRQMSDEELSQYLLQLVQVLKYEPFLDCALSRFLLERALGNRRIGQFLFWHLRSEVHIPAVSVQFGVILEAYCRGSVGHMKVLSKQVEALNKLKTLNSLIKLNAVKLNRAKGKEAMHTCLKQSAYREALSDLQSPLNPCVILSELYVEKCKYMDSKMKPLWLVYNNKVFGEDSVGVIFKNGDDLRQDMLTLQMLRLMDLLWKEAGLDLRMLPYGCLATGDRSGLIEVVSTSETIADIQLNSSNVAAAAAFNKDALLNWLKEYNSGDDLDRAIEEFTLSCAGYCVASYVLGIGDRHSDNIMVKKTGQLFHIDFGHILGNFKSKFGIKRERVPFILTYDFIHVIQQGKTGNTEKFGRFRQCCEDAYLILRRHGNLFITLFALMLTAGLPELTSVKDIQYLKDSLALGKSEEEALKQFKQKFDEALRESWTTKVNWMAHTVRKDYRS
T3 sequence (P27986 whole entry partner): as the sequence (P27986 whole entry partner) above

`COc1ncc(-c2ccc3ncn(CC(C)C(N)=O)c(=O)c3c2)cc1NS(=O)(=O)c1sc(C)nc1C` (single isomer, unassigned) [WX024] gave an IC50 (PI3Kδ) of 0.47 nM, an IC50 [1] of 71.5 nM and an IC50 (PI3Kα) of 0.29 nM. The IC50 (PI3Kβ) was 19.9 nM and the IC50 (PI3Kγ) was 2.03 nM.

For `COc1ncc(-c2ccc3ncn(CC(C)C(N)=O)c(=O)c3c2)cc1NS(=O)(=O)c1sc(C)nc1C` (single isomer, unassigned) [WX025], the IC50 (PI3Kδ) was 0.47 nM, the IC50 [1] was 23.9 nM and the IC50 (PI3Kα) was 0.41 nM. The IC50 (PI3Kβ) was 13.2 nM and the IC50 (PI3Kγ) was 1 nM.

`COCCNC(=O)C(C)Cn1cnc2ccc(-c3cnc(OC)c(NS(=O)(=O)c4ccc(F)cc4Cl)c3)cc2c1=O` (single isomer, unassigned) [WX065] gave an IC50 (PI3Kδ) of 29.7 nM, an IC50 [1] of 72 nM and an IC50 (PI3Kα) of 4.9 nM. The IC50 (PI3Kβ) was 1120 nM and the IC50 (PI3Kγ) was 45.2 nM.

In the case of `COc1ncc(-c2ccc3ncn(CC(C)C(=O)NCCF)c(=O)c3c2)cc1NS(=O)(=O)c1ccc(F)cc1Cl` (single isomer, unassigned) [WX067], the IC50 (PI3Kδ) is reported as 18.8 nM, the IC50 [1] is reported as 67.4 nM and the IC50 (PI3Kα) is reported as 2.47 nM. The IC50 (PI3Kβ) was 399 nM, the IC50 (PI3Kγ) was 18.3 nM and the Cmax ([2]; 2 mpk) was 3.39 µM. For the same compound, the “Oral DNAUC (area under the dose normalization curve)” value ([2]; 2 mpk) was 1047 nM · h/mpk.

For `CNC(=O)C(C)Cn1cnc2ccc(-c3cnc(OC)c(NS(=O)(=O)c4ccc(F)cc4)c3)cc2c1=O` (single isomer, unassigned) [WX087], the IC50 (PI3Kδ) was 30.7 nM, the IC50 [1] was 19 nM and the IC50 (PI3Kα) was 3.35 nM. For the same compound, the IC50 (PI3Kβ) was 355 nM, the IC50 (PI3Kγ) was 41.3 nM and the Cmax ([2]; 10 mpk) was 5 µM. The “Oral DNAUC (area under the dose normalization curve)” value ([2]; 10 mpk) was 1372 nM · h/mpk.

In the case of `CNC(=O)C(C)Cn1cnc2ccc(-c3cnc(OC)c(NS(=O)(=O)c4ccc(C)cc4C)c3)cc2c1=O` (single isomer, unassigned) [WX091], the IC50 (PI3Kδ) is reported as 26.2 nM, the IC50 [1] is reported as 5.7 nM and the IC50 (PI3Kα) is reported as 5.11 nM. For the same compound, the IC50 (PI3Kβ) was 537 nM and the IC50 (PI3Kγ) was 97.3 nM.

Work on `CNC(=O)C(C)Cn1cnc2ccc(-c3cnc(OC)c(NS(=O)(=O)c4cc(C(F)(F)F)cc(C(F)(F)F)c4)c3)cc2c1=O` (single isomer, unassigned) [WX103] yielded an IC50 (PI3Kδ) of 403 nM, an IC50 [1] of 13.4 nM and an IC50 (PI3Kα) of 20.8 nM. The IC50 (PI3Kβ) was 2280 nM, the IC50 (PI3Kγ) was 360 nM and the “Cl (clearance rate)” value ([2]; intravenous 1 mg/kg) was 1.29 mL/min/kg. For the same compound, the “Intravenous injection T1/2” value ([2]; intravenous 1 mg/kg) was 3.55 h, the “Vd (apparent volume of distribution)” value ([2]; intravenous 1 mg/kg) was 0.324 L/kg and the “F % (oral bioavailability)” value ([2]; oral 10 mpk vs intravenous 1 mg/kg) was 58.4%. For the same compound, the Cmax ([2]; 10 mpk) was 18.3 µM and the “Oral DNAUC (area under the dose normalization curve)” value ([2]; 10 mpk) was 12262 nM · h/mpk.

`CNC(=O)C(C)Cn1cnc2c(F)cc(-c3cnc(OC)c(NS(=O)(=O)c4ccc(F)cc4Cl)c3)cc2c1=O` (single isomer, unassigned) [WX105] showed an IC50 (PI3Kδ) of 41.1 nM, an IC50 [1] of 193 nM and an IC50 (PI3Kα) of 10.5 nM. It also gave an IC50 (PI3Kβ) of 1150 nM and an IC50 (PI3Kγ) of 29.2 nM.
